In patent US10633386B2, “BET protein degraders” (THE REGENTS OF THE UNIVERSITY OF MICHIGAN, priority 2016, dated 2020):
Like-named read-outs stand apart in the source and are kept apart here.

Columns and labels:
H647 = assay: Cell growth inhibition (CellTiter-Glo), NSCLC line H647; assay type: cell-based; details: H647 non-small cell lung cancer cell line, 4 days
Experimental: (§1) Cell growth inhibitory activity of representative BET bromodomain degraders in representative non-small cell lung cancer cell lines was determined using the CellTiter-Glo® Luminescent Cell Viability Assay. Cells were seeded in 384-well white opaque cell culture plates at a density of 2,000 cells/well with serially diluted compounds and incubated at 37° C. in an atmosphere of 95% air and 5% CO2 for 4 days. Cell viability was determined using the CellTiter-Glo® Luminescent Cell Viability Assay Kit (Promega, Madison, Wis.) according to the manufacture's instruction. Briefly, a volume of CellTiter-Glo® Reagent equal to the volume of cell culture medium was added to each well, and then the plates were incubated at room temperature for 10-20 minutes. The luminescent signal was measured using a Tecan Infinite M1000 multimode microplate reader (Tecan, Morrisville, N.C.). The half maximal inhibitory concentration (IC50) was calculated using the GraphPad Prism 5 software (GraphPad Software, La Jolla, Calif.). Cpd. A is a BET bromodomain inhibitor, see U.S. Appl.

T84 = assay: Cell growth inhibition (CellTiter-Glo), colon cancer line T84; assay type: cell-based
Experimental: as §1, with “Appl. No. 62/121,637, having the following structure:” for “Appl.”
(§2) Cell growth inhibitory activity of representative BET bromodomain degraders in representative colon cancer cell lines, see Table 7, was determined as described in Example 17.

SW480 = assay: Cell growth inhibition (CellTiter-Glo), colon cancer line SW480; assay type: cell-based
Experimental: as §1, with “Appl. No. 62/121,637, having the following structure:” for “Appl.”
as §2

LS411N = assay: Cell growth inhibition (CellTiter-Glo), colon cancer line LS411N; assay type: cell-based
Experimental: as §1, with “Appl. No. 62/121,637, having the following structure:” for “Appl.”
as §2

A549 = assay: Cell growth inhibition (CellTiter-Glo), NSCLC line A549; assay type: cell-based; details: A549 non-small cell lung cancer cell line, 4 days
Experimental: as §1

SW1412 = assay: Cell growth inhibition (CellTiter-Glo), colon cancer line SW1412; assay type: cell-based
Experimental: as §1, with “Appl. No. 62/121,637, having the following structure:” for “Appl.”
as §2

SW403 = assay: Cell growth inhibition (CellTiter-Glo), colon cancer line SW403; assay type: cell-based
Experimental: as §1, with “Appl. No. 62/121,637, having the following structure:” for “Appl.”
as §2

H2170 = assay: Cell growth inhibition (CellTiter-Glo), NSCLC line H2170; assay type: cell-based; details: H2170 non-small cell lung cancer cell line, 4 days
Experimental: as §1

MDA-MB-157 = assay: Cell growth inhibition (CellTiter-Glo), breast cancer line MDA-MB-157; assay type: cell-based; details: MDA-MB-157 breast cancer cell line, 4 days
Experimental: (§3) Cell growth inhibitory activity of representative BET bromodomain degraders in representative breast cancer cell lines was determined using the CellTiter-Glo® Luminescent Cell Viability Assay. SUM-52 and SUM-159 cell lines were established at the University of Michigan Comprehensive Cancer Center. All the other breast cancer cell lines were obtained from the ATCC (Manassas, Va.). Cells were seeded in 384-well cell culture plates at a density of 1,000-2,500 cells/well with serially diluted compounds and incubated at 37° C. in an atmosphere of 95% air and 5% CO2 for 4 days. Cell viability was determined using the CellTiter-Glo® Luminescent Cell Viability Assay Kit (Promega, Madison, Wis.) according to the manufacture's instruction. Briefly, a volume of CellTiter-Glo® Reagent equal to the volume of cell culture medium was added to each well, and then the plates were incubated at room temperature for 20-60 minutes. The luminescent signal was measured using a Tecan Infinite M1000 multimode microplate reader (Tecan, Morrisville, N.C.). The half maximal inhibitory concentration (IC50) was calculated using the GraphPad Prism 5 software (GraphPad Software, La Jolla, Calif.). “Thd” is thalidomide.

HCC38 = assay: Cell growth inhibition (CellTiter-Glo), breast cancer line HCC38; assay type: cell-based; details: 4 days
Experimental: as §3

MDA-MB-231 = assay: Cell growth inhibition (CellTiter-Glo), MDA-MB-231; assay type: cell-based, human; details: Homo sapiens, MDA-MB-231, 96 h, MDA-MB-231 cells, 4 days
Experimental: Cell growth inhibitory activity of representative BET bromodomain degraders was determined using CellTiter-Glo® Luminescent Cell Viability Assay. Cells were seeded in 384-well white opaque cell culture plates at a density of 2,000 cells/well with serially diluted compounds and incubated at 37° C. in an atmosphere of 95% air and 5% CO2 for 4 days. Cell viability was determined using the CellTiter-Glo® Luminescent Cell Viability Assay Kit (Promega, Madison, Wis.) according to the manufacture's instruction. Briefly, a volume of CellTiter-Glo® Reagent equal to the volume of cell culture medium was added to each well, and then the plates were incubated at room temperature for 10-20 minutes. The luminescent signal was measured using a Tecan Infinite M1000 multimode microplate reader (Tecan, Morrisville, N.C.). The half maximal inhibitory concentration (IC50) was calculated using the GraphPad Prism 5 software (GraphPad Software, La Jolla, Calif.).

BCL-2 and BCL-XL = BCL-2 and BCL-XL expression in TNBC cells; assay type: cell-based; details: TNBC cell lines (FIG. 13)

Row | SMILES | IC50 (SW1412) | IC50 (H647; Homo sapiens, NCI-H647, 96 h) | IC50 (T84; Homo sapiens) | IC50 (SW480; Homo sapiens) | IC50 (LS411N; Homo sapiens, LS-411N) | IC50 (A549; Homo sapiens, 96 h) | IC50 (SW403; Homo sapiens, SW-403) | IC50 (H2170; Homo sapiens, NCI-H2170, 96 h) | IC50 (MDA-MB-231) | expression of anti-apoptotic BCL-2 and BCL-XL (BCL-2 and BCL-XL) | IC50 (MDA-MB-157; Homo sapiens, 96 h) | IC50 (HCC38; Homo sapiens, 96 h) | further results
1 | Cc1sc2c(c1C)C(c1ccc(Cl)cc1)=N[C@@H](CC(=O)NCCCCNC(=O)COc1cccc3c1C(=O)N(C1CCC(=O)NC1=O)C3=O)c1nnc(C)n1-2 (stereo partly drawn) [dBET1, reference compound] | > 5000 nM |  |  |  |  |  |  |  |  |  |  |  | IC50 (H647): > 5000 nM; IC50 (T84): > 5000 nM; IC50 (SW480): > 5000 nM; IC50 (LS411N): > 5000 nM; IC50 (A549): > 5000 nM; IC50 (SW403): > 5000 nM; IC50 (H2170): > 5000 nM; IC50 (MDA-MB-157): 1170 nM; IC50 (HCC38): 3700 nM
2 | CCn1nc(C2CC2)cc1Nc1nc(C(=O)NCCCCNc2cccc3c2C(=O)N(C2CCC(=O)NC2=O)C3=O)nc2[nH]c3cc(-c4c(C)noc4C)c(OC)cc3c12 (stereo not drawn) [Cpd. No. 9] | 34 ± 20 nM | 789 nM | 690 ± 300 nM | 247 ± 60 nM | 560 ± 380 nM | 157 nM | 219 ± 190 nM | 195 nM | 5.6 nM |  |  |  | 
3 | CCn1nc(C2CC2)cc1Nc1nc(COC)nc2[nH]c3cc(-c4c(C)noc4C)c(OC)cc3c12 [Cpd. A, reference compound] | 40 ± 20 nM | 80 nM | 413 ± 100 nM | 567 ± 10 nM | 110 ± 90 nM | 20 nM | 102 ± 23 nM | 20 nM |  | not significantly altered | 860 nM | 60 nM | 
4 | CCn1nc(C2CC2)cc1Nc1nc(C(=O)NCCCOCCOCCOCCCNc2cccc3c2C(=O)N(C2CCC(=O)NC2=O)C3=O)nc2[nH]c3cc(-c4c(C)noc4C)c(OC)cc3c12 (stereo not drawn) [Cpd. No. 4] | 9 ± 4 nM | 598 nM | 110 ± 30 nM | 37 ± 10 nM | 100 ± 60 nM | 119 nM | 42 ± 10 nM | 99 nM | 3.5 nM | not significantly altered | 2 nM | 4 nM | 
